Assay results published in article PMC11110157, “Biosynthesis of the bacterial antibiotic 3,7-dihydroxytropolone through enzymatic salvaging of catabolic shunt products” (Chemical Science, 2024).

Legend:
TrlD [1] = target: T1, TrlD (Streptomyces cyaneofuscatus, UniProt A0A2S1JZG9); test: co-purification with bound flavin; assay type: binding; conditions: FAD preferred over FMN as flavin substrate
T1 construct: heterologously produced and purified; fraction co-purified with FAD
T1 sequence (A0A2S1JZG9 1-185): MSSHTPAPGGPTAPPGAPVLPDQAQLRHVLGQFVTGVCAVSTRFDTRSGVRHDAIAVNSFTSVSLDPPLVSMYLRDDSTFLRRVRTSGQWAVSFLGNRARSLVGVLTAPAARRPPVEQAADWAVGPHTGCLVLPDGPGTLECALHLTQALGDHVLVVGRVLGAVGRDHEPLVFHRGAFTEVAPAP

TrlE [2] = target: T2, TrlE (Streptomyces cyaneofuscatus, UniProt A0A2S1JZI9); test: X-ray crystallography ([…] A); assay type: binding; conditions: FAD non-covalently bound, IN conformation
T2 construct: heterologously produced and purified; crystal structure model residues 1-400
T2 sequence (A0A2S1JZI9 1-400): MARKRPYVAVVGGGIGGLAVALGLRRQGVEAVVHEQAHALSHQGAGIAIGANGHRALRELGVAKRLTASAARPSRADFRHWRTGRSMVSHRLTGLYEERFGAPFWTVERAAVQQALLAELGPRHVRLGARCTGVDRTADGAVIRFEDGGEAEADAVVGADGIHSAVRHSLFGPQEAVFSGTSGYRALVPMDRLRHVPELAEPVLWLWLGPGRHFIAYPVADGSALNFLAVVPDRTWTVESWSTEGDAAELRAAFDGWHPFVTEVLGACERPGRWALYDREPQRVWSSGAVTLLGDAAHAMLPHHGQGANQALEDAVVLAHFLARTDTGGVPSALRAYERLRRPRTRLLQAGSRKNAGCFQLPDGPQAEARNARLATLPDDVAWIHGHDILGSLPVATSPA

TrlD [3] = target: T1, TrlD; test: flavin reductase assay, cofactor specificity; assay type: biochemical; conditions: preferred over NADPH
TrlE [4] = target: T3, TrlE (Streptomyces cyaneofuscatus, UniProt A0A2S1JZI9, H213Q); test: substrate consumption and product formation assay; assay type: biochemical; conditions: strongly reduced activity, minor product formation
T3 construct: heterologously produced and purified; crystal structure model residues 1-400
T3 sequence (A0A2S1JZI9 entry or part of it H213Q): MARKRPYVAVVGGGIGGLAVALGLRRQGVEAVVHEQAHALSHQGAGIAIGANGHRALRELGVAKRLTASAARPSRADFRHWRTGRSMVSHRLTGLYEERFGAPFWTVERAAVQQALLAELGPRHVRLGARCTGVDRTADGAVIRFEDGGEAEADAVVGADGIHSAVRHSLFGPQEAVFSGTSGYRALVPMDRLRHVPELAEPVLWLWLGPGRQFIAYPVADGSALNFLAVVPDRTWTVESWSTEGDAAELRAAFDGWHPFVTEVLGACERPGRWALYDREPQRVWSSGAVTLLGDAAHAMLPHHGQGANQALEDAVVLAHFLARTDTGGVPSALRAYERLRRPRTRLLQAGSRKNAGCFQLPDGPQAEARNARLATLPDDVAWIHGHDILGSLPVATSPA

TrlE [5] = target: T4, TrlE (Streptomyces cyaneofuscatus, UniProt A0A2S1JZI9, H213E); test: substrate consumption and product formation assay; assay type: biochemical; conditions: strongly reduced activity, minor product formation
T4 construct: heterologously produced and purified; crystal structure model residues 1-400
T4 sequence (A0A2S1JZI9 entry or part of it H213E): as the sequence (A0A2S1JZI9 entry or part of it H213Q) above, with Q213E counted along it

TrlE [6] = target: T5, TrlE (Streptomyces cyaneofuscatus, UniProt A0A2S1JZI9, Y217F); test: substrate consumption and product formation assay; assay type: biochemical; conditions: strongly reduced activity
T5 construct: heterologously produced and purified; crystal structure model residues 1-400
T5 sequence (A0A2S1JZI9 entry or part of it Y217F): as the sequence (A0A2S1JZI9 entry or part of it H213Q) above, with Q213H, Y217F counted along it

TrlE [7] = target: T2, TrlE; test: differential scanning fluorimetry; assay type: binding; conditions: substrate analogue; thermal shift

SMILES: Cc1cc2nc3c(=O)[nH]c(=O)nc-3n(C[C@H](O)[C@H](O)[C@H](O)COP(=O)(O)OP(=O)(O)OC[C@H]3O[C@@H](n4cnc5c(N)ncnc54)[C@H](O)[C@@H]3O)c2cc1C [FAD]
- co-purification with bound flavin (TrlD [1]): a fraction of TrlD was co-purified with bound FAD
- X-ray crystallography (2.5 A) (TrlE [2]): The non-covalently bound FAD observed in this structure is present in the “IN” conformation

SMILES: NC(=O)C1=CN([C@@H]2O[C@H](COP(=O)(O)OP(=O)(O)OC[C@H]3O[C@@H](n4cnc5c(N)ncnc54)[C@H](O)[C@@H]3O)[C@@H](O)[C@H]2O)C=CC1 [NADH]
- flavin reductase assay, cofactor specificity (TrlD [3]): TrlD preferred FAD and NADH over FMN and NADPH, respectively

SMILES: O=C(O)C1=C(O)CC=CC=C1 [compound 7, dihydrotropone-2-carboxylate]
- substrate consumption and product formation assay (TrlE [4]): For both H213E and H213Q variants, minor product formation was still observed
- substrate consumption and product formation assay (TrlE [5]): For both H213E and H213Q variants, minor product formation was still observed
- substrate consumption and product formation assay (TrlE [6]): the other variants showed strongly reduced catalytic activity, with slowed substrate consumption and product formation

SMILES: O=C(O)c1ccccc1O [salicylate]
- differential scanning fluorimetry (TrlE [7]): binding of these compounds to TrlE was confirmed by differential scanning fluorimetry (DSF)

SMILES: O=C(O)c1cccccc1=O [tropone-2-carboxylate]
- differential scanning fluorimetry (TrlE [7]): binding of these compounds to TrlE was confirmed by differential scanning fluorimetry (DSF)
